Assays:
IDO1 [1] = target: T1, IDO1 (Homo sapiens (Human), UniProt P14902); test: IDO1 Enzyme Assay; details: HIS-tagged recombinant IDO1, 40 nM
IDO1 [2] = target: T1, IDO1; test: IDO1 Cellular Assay in Frozen HEK293 Cells Transiently Transfected with Human IDO1; type: cell-based; details: read-out: IDO1 HEK293 Cell Assay, IC50
Procedure: IDO1 Cellular Assay in Frozen HEK293 Cells Transiently Transfected with Human IDO1
HEK293 cells were cultured in complete HEK293 culture medium (90% DMEM, 10% heat-inactivated fetal bovine serum). When reaching sub-confluent, the cells were trypsinized and neutralized with complete medium. […] Flag-IDO1 plasmid was added to the cell suspension at a concentration of 100 μg/mL. The cell-plasmid solutions were transferred to the OC-400 processing assembly (Maxcyte), 400 l/unit and the units were placed in a Maxcyte instrument to carry out flow electroporation for transfection. The cells were then transferred to a sterile 24-well cell culture plate to recover for 20-30 min at 37° C. in an incubator with 5% CO2.
Frozen HEK293/IDO1 and HEK293 WT cells were thawed and transferred into HEK293 assay medium (99% complete HEK293 culture medium, 1% Pen/Strep) with 20 mL medium/vial of cells. The cells were spun down at 250 g in a table top centrifuge for 5 min and suspended in same volume of HEK293 assay medium. […] Sterile L-tryptophan were added to the cells with final concentration of 300 μM.
(§1) HEK293/IDO1 and HEK293 WT cells were dispensed to the respective wells of 384-well assay plates containing the compounds. The plates were incubated for about 28-30 h at a 37° C., 5% CO2 incubator. […] The plates were centrifuged for 1 min at 200×g. The resulting fluorescence was measured in a Spectramax plate reader (Molecular Devices) with a 400 nm excitation filter and a 510 nm emission filter.

IDO1 [3] = target: T1, IDO1; test: IDO1 Cellular Assay in Hela Cells Stimulated with IFNγ; type: cell-based; details: Hela cells stimulated with IFNγ 100 ng/mL; read-out: IDO1 HELA Cell Assay, IC50
Procedure: IDO1 Cellular Assay in Hela Cells Stimulated with IFNγ
Hela cells were cultured in complete Hela culture medium (90% EMEM, 10% heat-inactivated fetal bovine serum) and expanded to about 1×10^9 cells. The cells were then collected and frozen down at 10×10^6 cells/vial in 1 mL frozen medium (90% complete Hela culture medium, 10% DMSO)
Frozen Hela cells were thawed and transferred into Hela assay medium (99% complete Hela culture medium, 1% Pen/Strep) with 20 mL medium/vial of cells. The cells were spun down at 250 g in a table top centrifuge for 5 min and suspended in same volume of Hela assay medium. The cells were then counted and adjusted to a density of 2×10^5 cells/ml in Hela assay medium. Sterile L-tryptophan were added to the cells with final concentration of 300 uM L-tryptophan. A small aliquot (2 mL/plate) of Hela cells were set aside and were not treated with IFNγ, to serve as the Max-E control. The rest of Hela cells were added with sterile IFNγ (Cat #285-IF, R & D systems) with a final concentration of 100 ng/mL.
as §1, with “Hela cells with” for “HEK293/IDO1”, “without IFNγ” for “HEK293 WT cells”, “48 hours” for “28-30 h”

[4] = read-out: IDO1 Enzyme Assay, IC50
[5] = HEK293 cells transiently transfected with human IDO1

T1 sequence (P14902 whole entry): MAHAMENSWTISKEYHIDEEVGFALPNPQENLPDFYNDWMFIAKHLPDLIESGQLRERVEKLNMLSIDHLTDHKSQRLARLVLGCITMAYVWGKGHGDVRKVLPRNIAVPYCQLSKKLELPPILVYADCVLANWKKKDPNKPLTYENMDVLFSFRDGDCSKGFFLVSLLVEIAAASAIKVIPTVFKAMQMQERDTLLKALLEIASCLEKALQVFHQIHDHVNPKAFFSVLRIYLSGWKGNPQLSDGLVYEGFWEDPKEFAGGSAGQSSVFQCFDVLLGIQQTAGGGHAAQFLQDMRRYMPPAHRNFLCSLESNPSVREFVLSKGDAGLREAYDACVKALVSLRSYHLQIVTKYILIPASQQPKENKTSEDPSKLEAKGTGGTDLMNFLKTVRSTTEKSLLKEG

Row | IC50 (IDO1 [1]; [4]) | IC50 (IDO1 [2]; [5]) | IC50 (IDO1 [1]; IDO1 Enzyme Assay, IC50, nM) | IC50 (IDO1 [3]) | Compound | IC50 (IDO1 [2])
1 | 23 nM | 1140 nM |  |  | O=c1c(NCCSc2nonc2/C(=N/O)Nc2ccc(F)c(Br)c2)c(NCC(O)CO)c1=O (stereo not drawn) [Example 75, N-(3-bromo-4-fluorophenyl)-4-{[2-({2-[(2,3-dihydroxypropyl)amino]-3,4-dioxocyclobut-1-en-1-yl}amino)ethyl]sulfanyl}-N′-hydroxy-1,2,5-oxadiazole-3-carboximidamide] | 
2 | 166 nM | 1410 nM |  |  | O=c1c(NCCSc2nsnc2/C(=N/O)Nc2ccc(F)c(Br)c2)c(NCC2CC2)c1=O [Example 210, N-(3-bromo-4-fluorophenyl)-4-{[2-({2-[(cyclopropylmethyl)amino]-3,4-dioxocyclobut-1-en-1-yl}amino)ethyl]sulfanyl}-N′-hydroxy-1,2,5-thiadiazole-3-carboximidamide] | 
3 | 1030 nM | 1790 nM |  |  | CC(=O)NCCSc1nonc1/C(=N/O)Nc1ccc(F)cc1 [Example 62, N-[2-({4-[N-(4-fluorophenyl)-N′-hydroxycarbamimidoyl]-1,2,5-oxadiazol-3-yl}sulfanyl)ethyl]acetamide] | 
4 | 706 nM | 2430 nM |  |  | CC(C)OC(=O)OCOP(=O)(CCCSc1nonc1/C(=N/O)Nc1ccc(F)c(Br)c1)OCOC(=O)OC(C)C [Example 109, bis({[(1-methylethoxy)carbonyl]oxy}methyl) [3-({4-[N-(3-bromo-4-fluorophenyl)-N′-hydroxycarbamimidoyl]-1,2,5-oxadiazol-3-yl}sulfanyl)propyl]phosphonate] | 
5 | 27.8 nM | 723 nM |  |  | O=c1c(NCCSc2nonc2/C(=N/O)Nc2ccc(F)c(Br)c2)c(NCc2ccncc2)c1=O [Example 95, N-(3-bromo-4-fluorophenyl)-4-{[2-({3,4-dioxo-2-[(pyridin-4-ylmethyl)amino]cyclobut-1-en-1-yl}amino)ethyl]sulfanyl}-N′-hydroxy-1,2,5-oxadiazole-3-carboximidamide] | 
6 | 35.7 nM | 1220 nM |  |  | COC(=O)CSc1nonc1/C(=N/O)Nc1ccc(F)c(Br)c1 [Example 22, Methyl (Z)-2-((4-(N-(3-bromo-4-fluorophenyl)-N′-hydroxycarbamimidoyl)-1,2,5-oxadiazol-3-yl)thio)acetate] | 
7 | 48.2 nM | > 10000 nM |  |  | O=C(O)CCSc1nonc1/C(=N/O)Nc1ccc(F)c(Br)c1 [Example 14, (Z)-3-((4-(N-(3-bromo-4-fluorophenyl)-N′-hydroxycarbamimidoyl)-1,2,5-oxadiazol-3-yl)thio)propanoic acid] | 
8 | > 10000 nM | 3700 nM |  |  | O/N=C(\Nc1ccc(F)c(Br)c1)c1nonc1O [Example 4, (Z)—N-(3-Bromo-4-fluorophenyl)-N′,4-dihydroxy-1,2,5-oxadiazole-3-carboximidamide] | 
9 |  | 740 nM |  |  | CC(C)(C)OC(=O)NCCSc1nonc1/C(=N/O)Nc1ccc(F)c(Br)c1 [Example 1, Tert-butyl (Z)-(2-((4-(N-(3-bromo-4-fluorophenyl)-N′-hydroxycarbamimidoyl)-1,2,5-oxadiazol-3-yl)thio)ethyl)carbamate] | 
10 | 154 nM | 706 nM |  |  | O=P(CCSc1nonc1/C(=N/O)Nc1ccc(F)c(Br)c1)(NCc1ccccc1)NCc1ccccc1 [Example 116, 4-({2-[bis(benzylamino)phosphoryl]ethyl}sulfanyl)-N-(3-bromo-4-fluorophenyl)-N′-hydroxy-1,2,5-oxadiazole-3-carboximidamide] | 
11 | 131 nM | 838 nM |  |  | CCOC(=O)CNP(=O)(CCCSc1nonc1/C(=N/O)Nc1ccc(F)c(Br)c1)NCC(=O)OCC [Example 108, ethyl 4-[3-({4-[N-(3-bromo-4-fluorophenyl)-N′-hydroxycarbamimidoyl]-1,2,5-oxadiazol-3-yl}sulfanyl)propyl]-7-oxo-8-oxa-3,5-diaza-4-phosphadecan-1-oate 4-oxide] | 
12 | 149 nM | > 10000 nM |  |  | CC(Sc1nonc1/C(=N/O)Nc1ccc(F)c(Br)c1)C(=O)O (stereo not drawn) [Example 16, (Z)-2-((4-(N-(3-bromo-4-fluorophenyl)-N′-hydroxycarbamimidoyl)-1,2,5-oxadiazol-3-yl)thio)propanoic acid] | 
13 |  |  | 39.3 nM | 111 nM | O=C(CSc1nonc1/C(=N/O)Nc1ccc(F)c(Br)c1)NCC(O)CN1CCOCC1 (single isomer, unassigned) [Example 206, 2-((4-(N-(3-bromo-4-fluorophenyl)-N′-hydroxycarbamimidoyl)-1,2,5-oxadiazol-3-yl)thio)-N-(2-hydroxy-3-morpholinopropyl)acetamide] | 
14 | 44 nM |  |  | 144 nM | O=C(COc1nonc1/C(=N/O)Nc1ccc(F)c(Br)c1)NCCO [Example 6, 2-((4-(N-(3-Bromo-4-fluorophenyl)-N′-hydroxycarbamimidoyl)-1,2,5-oxadiazol-3-yl)oxy)-N-(2-hydroxyethyl)acetamide] | 
15 | 173 nM |  |  | 174 nM | O=c1cc(C(F)(F)F)cc(CSc2nonc2/C(=N/O)Nc2ccc(F)c(Br)c2)[nH]1 [Example 88, N-(3-bromo-4-fluorophenyl)-N′-hydroxy-4-({[6-oxo-4-(trifluoromethyl)-1,6-dihydropyridin-2-yl]methyl}sulfanyl)-1,2,5-oxadiazole-3-carboximidamide] | 
16 | 22.4 nM |  |  | 26.8 nM | C[C@@H](O)CNC(=O)CSc1nonc1/C(=N/O)Nc1ccc(F)c(Br)c1 [Example 201, (R)-2-((4-(N-(3-bromo-4-fluorophenyl)-N′-hydroxycarbamimidoyl)-1,2,5-oxadiazol-3-yl)thio)-N-(2-hydroxypropyl)acetamide] | 
17 | 73.8 nM |  |  | 143 nM | O=C(CSc1nonc1/C(=N/O)Nc1ccc(F)c(Br)c1)N1CCOCC1 [Example 193, N-(3-bromo-4-fluorophenyl)-N′-hydroxy-4-[(2-morpholin-4-yl-2-oxoethyl)sulfanyl]-1,2,5-oxadiazole-3-carboximidamide] | 
18 | 205 nM |  |  | 44.4 nM | CS(=O)(=O)NCCOc1nonc1/C(=N/O)Nc1ccc(F)c(Br)c1 [Example 214, N-(3-bromo-4-fluorophenyl)-N′-hydroxy-4-(2-(methylsulfonamido)ethoxy)-1,2,5-oxadiazole-3-carboximidamide] | 
19 | 29.9 nM |  |  | 14.9 nM | C[C@H](O)CNC(=O)CSc1nonc1/C(=N/O)Nc1ccc(F)c(Br)c1 [Example 200, (S)-2-((4-(N-(3-bromo-4-fluorophenyl)-N′-hydroxycarbamimidoyl)-1,2,5-oxadiazol-3-yl)thio)-N-(2-hydroxypropyl)acetamide] | 
20 | 130 nM |  |  | 607 nM | NCCOc1nonc1/C(=N/O)Nc1ccc(F)c(Br)c1 [Example 213, 4-(2-aminoethoxy)-N-(3-bromo-4-fluorophenyl)-N′-hydroxy-1,2,5-oxadiazole-3-carboximidamide] | 

Row | Compound | IC50 (IDO1 [1]; [4]) | IC50 (IDO1 [2]; [5]) | IC50 (IDO1 [1]; IDO1 Enzyme Assay, IC50, nM) | IC50 (IDO1 [3]) | IC50 (IDO1 [2])
21 | O=P(CCSc1nonc1/C(=N/O)Nc1ccc(F)c(Br)c1)(Oc1ccccc1)Oc1ccccc1 [Example 101, diphenyl [2-({4-[N-(3-bromo-4-fluorophenyl)-N′-hydroxycarbamimidoyl]-1,2,5-oxadiazol-3-yl}sulfanyl)ethyl]phosphonate] | 764 nM |  |  |  | 2240 nM
22 | O=P(O)(CCCSc1nonc1/C(=N/O)Nc1ccc(F)c(Br)c1)Oc1ccccc1 [Example 118, phenyl hydrogen [3-({4-[N-(3-bromo-4-fluorophenyl)-N′-hydroxycarbamimidoyl]-1,2,5-oxadiazol-3-yl}sulfanyl)propyl]phosphonate] | 34.1 nM |  |  |  | 8150 nM
23 | CN(C)P(=O)(CCSc1nonc1/C(=N/O)Nc1ccc(F)c(Br)c1)N(C)C [Example 139, 4-({2-[bis(dimethylamino)phosphoryl]ethyl}sulfanyl)-N-(3-bromo-4-fluorophenyl)-N′-hydroxy-1,2,5-oxadiazole-3-carboximidamide] | 117 nM |  |  |  | 551 nM
